# Measurements reported in patent US20090227540A1, “TREATMENT OF WOOD BASED ON NOVEL FORMULATIONS OF BORATRANES” (priority 2005, published 2009).
# Like-named read-outs stand apart in the source and are kept apart here.
# Assays:
# G. abietinum = conditions: Humphrey et al; cited from earlier work
# P. tephropora = conditions: Humphrey et al; cited from earlier work
# Coniophora puteana = experiment: decay of treated, leached radiata pine blocks (AWPA protocol); assay type: cell-based
# Protocol: (§1) A more rigorous examination of the potential synergism of was carried out on leached wood blocks. Radiata pine blocks were cut to size (20×20×20 mm) and labeled according to treatment level. The blocks were then vacuum impregnated at
# (§2) −95 kpa with the various treatments as specified in table 16. The aqueous or alcoholic carrier solvents were then allowed to air dry for a period of 5 days. The blocks were then subjected to leaching and biological attack in accordance with the AWPA's “Proctocols for assessment of Wood Preservatives.” The fungal species used were Tyromyces palustris, Coniophora puteana and Fomitopsis lilacino-gilva.
# (§3) inhibition of growth by fungicide B at retention q. E is the expected additive inhibition of the two fungicides. If a greater inhibition occurs with the combined treatment than the two fungicides acting alone synergism is defined to be present.
# [1] = system: Fomitopsis lilacino-gilva; experiment: as above; assay type: cell-based
# Protocol: as §1, §2, §3
# Tyromyces palustris [2] = experiment: as above; assay type: cell-based
# Protocol: as §1, §2, §3
# Trametes versicolor = experiment: malt agar plate growth inhibition, end point/MIC and Kull synergy; assay type: cell-based
# Protocol: (§4) To this end an alcoholic aqueous solutions of decyl boratrane and didecyldimethyl ammonium chloride were prepared separately and in combination in a ratio of 3:1 Serial dilutions of the formulations of the respective fungicides and fungicide mixture were added to 3 replicate plates of malt agar under aseptic conditions. Three replicate control plates without fungicide were similarly prepared.
# (§5) Onto each plate was placed 6 fungal inoculum squares measuring approximately 5×5 mm. […] The plates were then rated for growth inhibition and the results recorded.
# (§6) The absence or presence of synergism may be calculated by the method of F. C. Kull et al., Applied Microbiology, Vol 9, (1961) p 538 et seq. The synergistic index (S.I.) is calculated according to the following formula.
# (§7) In the present context the parameters in the formula have the following meaning:
# (§8) Qa=The concentration of compound decyl isopropanolamine boratrane (compound A) in mixture which produces and end point. Qb=The concentration of compound didecyldimethyl ammonium chloride (compound B) in mixture which produces and end point. QA=The concentration of compound decyl isopropanolamine boratrane (compound A) alone which produces and end point. QB=The concentration of compound didecyldimethyl ammonium chloride (compound B) alone which produces and end point. QC=The concentration of the mixture of didecyldimethyl ammonium chloride and decyl isopropanolamine boratrane (compounds A+B) which together produces and end point.
# (§9) If the synergistic index is above 1, this means that antagonism is present. If the synergistic index equals 1, this means that an additive effect of the two biocides exist. If the synergistic index is less than 1, this means that synergism of the two biocides exist.
# (§10) To this end an alcoholic aqueous solution of decyl boratrane and didecyldimethyl ammonium chloride was formulated in a ratio of 3:1. In a separate formulation a micro-emulsion of triadimefon was prepared. Serial dilutions of the formulations of the respective fungicides were added to 3 replicate plates of malt agar under aseptic conditions and tested for synergism under the same conditions as example 7 at ratios of 10:1 and 20:1 boratrane didecyldimethyl ammonium chloride mixture to 1 of triadimefon.
# (§11) The synergy experiment in Example 8 was repeated at two additional ratios of 5:1 and 50:1. The results are sumarised in tables 14 and 15.
# Pycnoporus coccineus = experiment: as above; assay type: cell-based
# Protocol: as §4, §5, §6, §7, §8, §9, §10, §11
# [3] = system: Fomitopsis lilacino-gilva; experiment: as above; assay type: cell-based
# Protocol: as §4, §5, §6, §7, §8, §9, §10, §11
# Tyromyces palustris [4] = experiment: as above; assay type: cell-based
# Protocol: as §4, §5, §6, §7, §8, §9, §10, §11
# Antroda xantha = experiment: as above; assay type: cell-based
# Protocol: as §4, §5, §6, §7, §8, §9, §10, §11
# [5] = cited from earlier work
# [6] = Ex 7, Table 5 prints no unit (ppm in Tables 1-4)
# [7] = Ex 8, A=DIPB DDAC 3:1, B=triadimefon
# [8] = Ex 9 repeat, A=DIPB DDAC 3:1, B=triadimefon
molecule,measurement,setting,value
CCCC[N+](CCCC)(CCCC)CCCC.c1ccc2c(c1)CO[B-]1(OCc3ccccc3O1)O2,inhibition of the fungi,G. abietinum,complete inhibition
same,inhibition of the fungi,P. tephropora,complete inhibition
OB(O)O [Boric acid],Mass loss %,Coniophora puteana; retention Boric acid 0.4% w,47.37%
same,Mass loss %,Coniophora puteana; retention Boric acid 0.8% w,43.4%
same,Mass loss %,[1]; retention Boric acid 0.4% w,32.91%
same,Mass loss %,[1]; retention Boric acid 0.8% w,30.6%
same,Mass loss %,Tyromyces palustris [2]; retention Boric acid 0.4% w,23.66%
same,Mass loss %,Tyromyces palustris [2]; retention Boric acid 0.8% w,24.67%
"CCCCCCCCCC[N+](C)(C)CCCCCCCCCC.[Cl-] [DDAC, didecyldimethyl ammonium chloride]","QB end point concentration, B alone","Trametes versicolor; Ex 7, A=DIPB, B=DDAC",2048
same,MIC,Trametes versicolor; Trametes versicolor,> 1020 mg/L
same,"QB end point concentration, B alone","Pycnoporus coccineus; Ex 7, A=DIPB, B=DDAC",2048
same,MIC,Pycnoporus coccineus; [6],2048
same,MIC,[3],256 mg/L
same,"QB end point concentration, B alone","[3]; Ex 7, A=DIPB, B=DDAC",256
same,MIC,Tyromyces palustris [4],1020 mg/L
same,"QB end point concentration, B alone","Tyromyces palustris [4]; Ex 7, A=DIPB, B=DDAC",1024
same,MIC,Antroda xantha,256 mg/L
same,"QB end point concentration, B alone","Antroda xantha; Ex 7, A=DIPB, B=DDAC",256
"CCCCCCCCCCC1C[N+]23CC(C)O[B-]2(OC(C)C3)O1 (stereo not drawn) [DIPB, 3,7-dimethyl-10-decyl-2,8,9-trioxa-5-aza-1-boratricyclo-[3.3.3.0]-undecane]",Mass loss %,Coniophora puteana; retention 0.1% w b.a.e.,56.25%
same,Mass loss %,Coniophora puteana; retention 0.2% w b.a.e.,47.62%
same,Mass loss %,Coniophora puteana; retention 0.4% w b.a.e,27.93%
same,Mass loss %,Coniophora puteana; retention 0.8% w b.a.e,4.64%
same,Mass loss %,[1]; retention 0.1% w b.a.e.,32.95%
same,Mass loss %,[1]; retention 0.2% w b.a.e.,34.58%
same,Mass loss %,[1]; retention 0.4% w b.a.e,10.09%
same,Mass loss %,[1]; retention 0.8% w b.a.e,0.29%
same,Mass loss %,Tyromyces palustris [2]; retention 0.1% w b.a.e.,22.55%
same,Mass loss %,Tyromyces palustris [2]; retention 0.2% w b.a.e.,26.55%
same,Mass loss %,Tyromyces palustris [2]; retention 0.4% w b.a.e,21.33%
same,Mass loss %,Tyromyces palustris [2]; retention 0.8% w b.a.e,0.86%
same,rate of boron leaching,[5]; analysis of the lap joints each year,significantly lower than boric acid
same,efficacy compared to boric acid,[5]; weather exposed lap joints,superior efficacy
same,MIC,Trametes versicolor; Ex 7,256 ppm
same,"QA end point concentration, A alone","Trametes versicolor; Ex 7, A=DIPB, B=DDAC",2048
same,"QA end point concentration, A alone","Pycnoporus coccineus; Ex 7, A=DIPB, B=DDAC",256
same,MIC,Pycnoporus coccineus; [6],2048
same,MIC,[3]; Ex 7,2048 ppm
same,"QA end point concentration, A alone","[3]; Ex 7, A=DIPB, B=DDAC",2048
same,MIC,Tyromyces palustris [4]; Ex 7,1024 ppm
same,"QA end point concentration, A alone","Tyromyces palustris [4]; Ex 7, A=DIPB, B=DDAC",1024
same,MIC,Antroda xantha; Ex 7,256 ppm
same,"QA end point concentration, A alone","Antroda xantha; Ex 7, A=DIPB, B=DDAC",256
CC(C)(C)C(=O)C(Oc1ccc(Cl)cc1)n1cncn1 (stereo not drawn) [Triadimefon],"QB end point concentration, B alone",Trametes versicolor; [7],4
same,"QB end point concentration, B alone",Trametes versicolor; [8],4
same,MIC,"Trametes versicolor; Trametes versicolor, Ex 8, read-out: MIC",128 mg/L
same,"QB end point concentration, B alone",Pycnoporus coccineus; [7],128
same,"QB end point concentration, B alone",Pycnoporus coccineus; [8],0.5
same,MIC,"Pycnoporus coccineus; Trametes coccinea, Ex 8, read-out: MIC",4 mg/L
same,"QB end point concentration, B alone",[3]; [7],4
same,MIC,"[3]; Ex 8, read-out: MIC",4 mg/L
same,"QB end point concentration, B alone",[3]; [8],8
same,"QB end point concentration, B alone",Tyromyces palustris [4]; [7],32
same,MIC,"Tyromyces palustris [4]; Ex 8, read-out: MIC",32 mg/L
same,"QB end point concentration, B alone",Tyromyces palustris [4]; [8],16
same,"QB end point concentration, B alone",Antroda xantha; [7],4
same,MIC,"Antroda xantha; Ex 8, read-out: MIC",4 mg/L
same,"QB end point concentration, B alone",Antroda xantha; [8],4
alkyldimethyl benzyl ammonium chloride [Benzalkonium Chloride 50%],Mass loss %,Coniophora puteana; retention ADBAC 0.16% w,60.59%
same,Mass loss %,Coniophora puteana; retention ADBAC 0.33% w,48.9%
same,Mass loss %,Coniophora puteana; retention ADBAC 0.66% w,39.16%
same,Mass loss %,Coniophora puteana; retention ADBAC 1.33% w,17.72%
same,Mass loss %,[1]; retention ADBAC 0.16% w,30.66%
same,Mass loss %,[1]; retention ADBAC 0.33% w,29.44%
same,Mass loss %,[1]; retention ADBAC 0.66% w,27.92%
same,Mass loss %,[1]; retention ADBAC 1.33% w,4.27%
same,Mass loss %,Tyromyces palustris [2]; retention ADBAC 0.16% w,21.68%
same,Mass loss %,Tyromyces palustris [2]; retention ADBAC 0.33% w,25.03%
same,Mass loss %,Tyromyces palustris [2]; retention ADBAC 0.66% w,23.72%
same,Mass loss %,Tyromyces palustris [2]; retention ADBAC 1.33% w,12.61%
